Results published in article PMC11637378, “Optogenetic screening of MCT1 activity implicates a cluster of non-steroidal anti-inflammatory drugs (NSAIDs) as inhibitors of lactate transport” (PLOS ONE, 2024).
Values joined by “and” are separate entries in the source; they are usually repeats but may differ in a detail not shown here. Identical values can stand only once. Like-named read-outs stand apart in the source and are kept apart here.

Tests used:
MCT1 = conditions: cited from earlier work; for MCT1 inhibitor annotation: NOTES/Group column, ref not given
parent strain (SAWy518) [1] = test system: parent strain (SAWy518)
[2] = cited from earlier work
parent strain (SAWy518) [3] = experiment: Off-target control in IC50 determination: growth of light-insensitive parent strain at each inhibitor concentration; format: cell-based, Saccharomyces cerevisiae; conditions: at the dosages used in this study
parent strain (SAWy518) [4] = experiment: microbe, parasite or virus in culture; design: species or system Saccharomyces cerevisiae SAWy518; Off-target growth counter-screen, OD600 as per cent of untreated wells, strain lacking MCT1; conditions: 18.5 h; sheet Primary Screen - final;; off-target growth of parent strain, about 18 h
Description: Cells were grown for 18 hours prior to OD measurement. Fill represents manual compound grouping based on compound class or target. OD600 is reported in Tecan units. […] The drug library used in this study for the initial screen and rescreen was provided by the Small Molecule Screening Center at Princeton University, through a collaboration with Dr. Hahn Kim. […] Follow-up analysis (IC50 determinations) on library compounds was performed using compounds purchased from outside sources. […] Stocks were then diluted 100-fold into media containing 0.01 OD600 inoculation of yeast, to achieve the final concentrations listed. Where compounds were added manually (for example 10 μM AZD3965 addition) stock concentrations were diluted by a factor of 100-fold regardless of scale, resulting in a final concentration of 1% v/v DMSO which is well tolerated by yeast.

cancer cell growth = conditions: cited from earlier work

| SMILES | IC50 (MCT1; read-out: previously reported inhibition value for MCT1 (IC50)) [µM] | OffScreen_percentage (parent strain (SAWy518) [1]) [percentage] | Offscreen_18hr (parent strain (SAWy518) [1]) | Offscreen_24hr (parent strain (SAWy518) [1]) | Offscreen_42hr (parent strain (SAWy518) [1]) | Read_percentage (parent strain (SAWy518) [1]) | blood-plasma concentration ([2]; 150–200 mg daily) [µM] | off-target toxicity (parent strain (SAWy518) [3]) | MCT1 inhibitor annotation (MCT1; library annotation) | viability at 10 µM (parent strain (SAWy518) [4]) [%] | concentrations of in vitro anticancer activity (cancer cell growth) [µM] | blood-plasma concentration ([2]; 20 mg/day) [µM] | MCT1 inhibition (annotation) (MCT1; library annotation) | Known MCT1 inhibitor (MCT1; library annotation) |
| --- | --- | --- | --- | --- | --- | --- | --- | --- | --- | --- | --- | --- | --- | --- |
| O=C(O)Cc1ccccc1Nc1c(Cl)cccc1Cl [Diclofenac, reference compound] | 1.4 | 100.855 | 0.8139 | 0.8825 | 0.9387 | 100.855 percentage | 6.1 | – | – | – | – | – | – | – |
| CC(C(=O)O)c1cccc(C(=O)c2ccccc2)c1 (stereo not shown) [Ketoprofen] | – | – | – | – | – | – | – | do not exhibit off-target toxicity | – | – | – | – | – | – |
| O=C(CCc1ccc(O)cc1)c1c(O)cc(O)cc1O [Phloretin] | – | 94.4238 | 0.762 | 0.892 | 0.9541 | 94.4238 percentage | – | – | MCT1 inhibitor | 94.4 | – | – | – | – |
| CN1C(C(=O)Nc2ccccn2)=C(O)c2ccccc2S1(=O)=O [Piroxicam, reference compound] | – | 95.2292 | 0.7685 and 0.7781 | 0.8625 and 0.86 | 0.9267 and 0.9178 | 95.2292 percentage | – | – | – | – | 25 to 30 | 16 to 20 | – | – |
| O=c1c(O)c(-c2ccc(O)c(O)c2)oc2cc(O)cc(O)c12 [Quercetin (Sophoretin)] | – | – | 0.7827 | 0.8834 | 0.9444 | – | – | – | – | – | – | – | PI3K, PKC, Src, Sirtuin inhibitor, MCT1 inhibitor - flavanoid | – |
| O=c1c(O)c(-c2ccc(O)c(O)c2)oc2cc(O)cc(O)c12 [Quercetin dihydrate] | – | – | 0.7753 | 0.8789 | 0.9377 | – | – | – | – | – | – | – | Known MCT1 inhibitor, PI3-K and PDE inhibitor (flavanoid) | – |
| O=c1c(O)c(-c2ccc(O)c(O)c2)oc2cc(O)cc(O)c12 [Quercetin, reference compound] | – | 96.0719 | 0.7753 | 0.8789 | 0.9377 | 96.0719 percentage | – | – | Known MCT1 inhibitor, PI3-K and PDE inhibitor (flavanoid) | – | – | – | – | Known MCT1 inhibitor, PI3-K and PDE inhibitor (flavanoid) |
| CC[C@@H](C(=O)[C@@H](C)[C@@H](O)[C@H](C)[C@@H]1O[C@@H]([C@@H](CC)C(=O)O)CC[C@@H]1C)[C@H]1O[C@]2(C=C[C@@H](O)[C@]3(CC[C@@](C)([C@H]4CC[C@](O)(CC)[C@H](C)O4)O3)O2)[C@H](C)C[C@@H]1C [Salinomycin] | – | 99.2937 | 0.8013 | 0.892 | 0.9461 | 99.2937 | – | – | – | 99.3 | – | – | – | – |
| CC1=C(C)C(=O)C(C(CCCCCC(=O)O)c2ccccc2)=C(C)C1=O (stereo not shown) [Seratrodast] | – | 93.9777 | 0.7584 | 0.8726 | 0.927 | 93.9777 | – | – | – | 94 | – | – | – | – |
| O=C1c2ccc(Nc3ccc(F)cc3F)cc2CCc2ccc(OC[C@H](O)CO)cc21 [Skepinone-L] | – | 96.8897 | 0.7819 | 0.9197 | 0.985 | 96.8897 | – | – | – | 96.9 | – | – | – | – |
| CC1=C(CC(=O)O)c2cc(F)ccc2/C1=C\c1ccc([S+](C)[O-])cc1 (stereo not shown) [Sulindac, reference compound] | – | 103.073 | 0.8318 | 0.9131 | 0.9739 | 103.073 | – | do not exhibit off-target toxicity | – | – | – | – | – | – |
| CCN(CC)CCNC(=O)c1c(C)[nH]c(/C=C2\C(=O)Nc3ccc(F)cc32)c1C.O=C(O)C[C@H](O)C(=O)O [Sunitinib Malate] | – | 101.351 | 0.8179 | 0.9023 | 0.9606 | 101.351 | – | – | – | 101 | – | – | – | – |
| Cc1ccc(S(=O)(=O)N[C@@H](Cc2ccccc2)C(=O)CCl)cc1 [TCPK] | – | 91.0409 | 0.7347 | 0.8725 | 0.9353 | 91.0409 | – | – | – | 91 | – | – | – | – |
| O=C(O)Cc1cc(I)c(Oc2cc(I)c(O)c(I)c2)c(I)c1 [TETRAC] | – | 101.202 | 0.8167 | 0.8874 | 0.9359 | 101.202 | – | – | – | 101 | – | – | – | – |
| O=[N+]([O-])c1ccc(CNc2nc(NCc3cccc(C(F)(F)F)c3)nc3[nH]cnc23)cc1 [TNP] | – | 99.4919 | 0.8029 | 0.895 | 0.9464 | 99.4919 | – | – | – | 99.5 | – | – | – | – |
| C=CC[C@@H]1/C=C(\C)C[C@H](C)C[C@H](OC)[C@H]2O[C@@](O)(C(=O)C(=O)N3CCCC[C@H]3C(=O)O[C@H](/C(C)=C/[C@@H]3CC[C@@H](O)[C@H](OC)C3)[C@H](C)[C@@H](O)CC1=O)[C@H](C)C[C@@H]2OC [Tacrolimus] | – | 90.0867 | 0.727 and 0.685 | 0.8973 and 0.8833 | 0.9661 and 0.9834 | 90.0867 | – | – | – | 90.1 | – | – | – | – |
| CC/C(=C(\c1ccccc1)c1ccc(OCCN(C)C)cc1)c1ccccc1.O=C(O)CC(O)(CC(=O)O)C(=O)O [Tamoxifen Citrate] | – | 96.6419 | 0.7799 | 0.893 | 0.9507 | 96.6419 | – | – | – | 96.6 | – | – | – | – |
| NCCS(=O)(=O)O [Taurine] | – | 104.139 | 0.8404 | 0.9173 | 0.9826 | 104.139 | – | – | – | 104 | – | – | – | – |
| CCOC(=O)[C@@H](N)Cc1ccc(-c2cc(O[C@H](c3ccc(Cl)cc3-n3ccc(C)n3)C(F)(F)F)nc(N)n2)cc1.O=C(O)CNC(=O)c1ccccc1 [Telotristat Etiprate] | – | 96.9393 | 0.7823 | 0.9107 | 0.9681 | 96.9393 | – | – | – | 96.9 | – | – | – | – |
| N#CC(=C(\N)Sc1ccccc1N)/C(C#N)=C(/N)Sc1ccccc1N [U0126] | – | 91.0905 | 0.7351 | 0.8786 | 0.95 | 91.0905 | – | – | – | 91.1 | – | – | – | – |
| COc1cc(C(=O)NS(=O)(=O)c2ccccc2C)ccc1Cc1cn(C)c2ccc(NC(=O)OC3CCCC3)cc12 [Zafirlukast] | – | 103.829 | 0.8379 | 0.9188 | 0.9793 | 103.829 | – | – | – | 104 | – | – | – | – |
| COc1c(O)cc2oc3cc(O)c(CC=C(C)C)c(O)c3c(=O)c2c1CC=C(C)C [alpha-mangostin] | – | 89.9628 | 0.726 | 0.8801 | 0.9296 | 89.9628 percentage | – | – | – | 90 | – | – | – | – |
